Like-named read-outs stand apart in the source and are kept apart here.
What was measured:
[1] = 90 minutes
Description: Example nano-suspensions were evaluated for particle size and particle size distribution using dynamic light scattering (DLS, Wyatt, DyanoPro Plate Reader). Results reported for particle size analysis (D50 and D90) have their ordinary meaning as understood in the art of particle-size analysis. Unless otherwise indicated, values for D50 and D90 are reported in nanometers (nm). The APC in example nano-suspensions was evaluated using high performance liquid chromatography (HPLC, Hewlett Packard, Agilent 1100). Residual metals analysis was performed using inductively coupled plasma mass spectroscopy (ICP-MS, Perkin Elmer).
The temperature of each nano-suspension was determined using a thermometer immediately after the milling time was completed. Particle size and metals content were analyzed as described herein. The nano-suspension product produced in each operation was recovered through centrifuge filtration over a 10 micron polypropylene mesh (Nanomill) or through a syringe equipped with a 20-gauge needle (acoustic mixer). In the case of the nano-suspension prepared with acoustic mixing, the YTZ milling media is sufficiently dense that it settles from the nano-suspension and permits separation by decantation without the need for separation through a mesh.

[2] = Particle size analysis (D50, D90) of nano-suspensions by dynamic light scattering; format: physicochemical; settings: 90 minutes, PVP-K29-32/SDS in water

For `COc1ccc2cc([C@H](C)C(=O)O)ccc2c1` [Naproxen sodium], the “Residual Metals” value ([1]; Elan Nanomill high-shear milling) was over 1000 ppm, the “Residual Metals” value ([1]; Resodyn LabRAM acoustic mixer) was under 1 ppm and the “Drug nanoparticle diameter (D50)” value ([2]; Elan Nanomill high-shear milling, polystyrene milling beads) was 354 nm. The “Drug nanoparticle diameter (D50)” value ([2]; Resodyn LabRAM acoustic mixer, YTZ milling beads) was 286 nm.

From patent publication US9381518B2, “Nano-suspension process” (MERCK SHARP & DOHME CORP., priority 2011, dated 2016)
